Measured values as given in patent US11246822B2, “Biomedical composition for skin care and/or maintenance and delaying and/or inhibiting skin aging and the use thereof” (INDUSTRIAL TECHNOLOGY RESEARCH INSTITUTE, priority 2019, dated 2022).

Assays:
[1] = ABTS free radical scavenging assay; settings: vitamin C 10 μg/ml, normal temperature
Method: Antioxidant capacity of a sample to be tested was evaluate by ABTS (English full name: 2,2′-azinobis-3-ethyl benzothiazoline-6-sulphonic acid) free radical scavenging test. Since ABTS and potassium persulphate (K2S2O8) will produce an oxidation reaction and form a stable blue-green water-soluble ABTS⋅^+ radical ion with a maximum absorption peak at 734 nm, ABTS⋅^+ free radical concentration can be detected through A734 nm. When the ABTS⋅^+ radical solution is added with an antioxidant (radical scavenger), the original single radicals are paired, causing the ABTS⋅^+ radical solution to fade and the A734 nm absorption value to decrease, thereby evaluating Free radical scavenging ability of the antioxidant can be evaluated.
The mixed solution was placed in a dark room at room temperature for 16 hours of reaction to form stable ABTS⋅^+ radical ions (blue-green), and then the mixed solution was diluted with deionized water to form a ABTS⋅^+ radical ion working solution with absorbance of 0.75±0.05 at 734 nm by a spectrophotometer.
Next, a sample to be tested and standards (Trolox) with different concentrations were added to the ABTS⋅^+ radical ion working solution, respectively, and a group in which only deionized water was added was used as a control group. Absorbance at 734 nm was detected by a spectrophotometer after 20 minutes of reaction. Abilities to scavenge ABTS⋅+ radicals of the standards (Trolox) with different concentrations were plotted as a scavenging standard curve. The measured absorbance of the sample to be tested and the control group are converted according to the standard curve to know the free radical scavenging ability of the sample to be tested. The formula for calculating the scavenging ability is: (1-ABSsample/ABScontrol)×100.

[2] = DPPH free radical scavenging assay; settings: normal temperature; for DPPH free radical capture rate: vitamin C 10 μg/ml
Method: DPPH is a stable free radical. When it is dissolved in methanol or ethanol, it will appear purple and has a strong absorbance at 515 nm. When the sample to be tested can directly react with DPPH radicals, it will block the […] reaction of DPPH free radicals. At this time, the DPPH solution which originally appeared blue-violet will turn into clear yellow, and the absorbance at 515 nm will decrease, and that means that the sample to be tested has an antioxidant component that captures DPPH free radicals. The lighter the color become, the stronger ability to capture DPPH free radicals the antioxidant component has, which means the better the antioxidant capacity of the sample to be tested has. This assay was performed according to a method modified from the method shown by Parejo et al (2003). Aqueous solution of the sample to be tested and standards (Glutathione) with different concentrations each 30 μl were added to the 96-well plate, respectively, and water was used as a blank control. Thereafter, 120 μl of 100 mM Tris-HCl buffer (pH 7.4) was added to the plate and then 150 μl of 500 μM DPPH (Sigma Sigma) ethanol solution was immediately added and uniformly mixed at room temperature and allowed to stand in the dark for 20 minutes. After that, absorbance at 515 nm was detected by a spectrophotometer. The more DPPH free radicals were scavenged, the more the absorbance value decreased. Ability of each sample to be tested to scavenge DPPH free radicals (also means the strength of the hydrogen supply capacity of the sample to be tested) can be determined by percentage of decrease in absorbance relative to the blank control group.

[3] = Antioxidant degradation evaluation assay (iodometric titration of vitamin C); format: physicochemical; settings: vitamin C 10 μg/ml
Method: This assay was performed according to a method modified from the method shown by Roberts et al. (1997). First, a liquid sample containing a specific antioxidant at a concentration to be tested was prepared, and the liquid sample containing the specific antioxidant was added into a 250 mL Erlenmeyer flask by a pipette and deionized water was added the to the Erlenmeyer flask to reach the 100 mL scale mark. At the same time, 1 mL of 0.1 M sodium iodide (NaI) and 1 mL of 0.1 M hydrochloric acid (hydrogen chloride, HCl) and 1 mL of 2% starch aqueous solution (indicator) were added to the Erlenmeyer flask. Next, a burette was rinsed the with 0.025 M potassium iodate (KIO3) at least twice, first, and then filled with 0.025 M potassium iodate in a technique of avoiding bubble formation during the filling, and the initial volume of the solution (Vi) in the burette was record after the filling. Thereafter, the liquid sample containing the specific antioxidant mentioned above was titrated with 0.025 M potassium iodate. […] Depending on the condition, the titration operation mentioned above could be repeated two or three times, as appropriate. Finally, the specific antioxidant content could be calculated from the titration volume of potassium iodate.

[4] = room temperature (about 26° C.), 24 hours

vitamin C concentration decreased ([3]; 40° C., 4 hours): 20.4%
vitamin C concentration, % of the initial concentration ([3]; 40° C., 24 hours): about 24.3%
vitamin C concentration, % of the initial concentration ([3]; 40° C., 72 hours): 3.3%
vitamin C concentration reduced / degraded [3, 4]: 62.6%
vitamin C concentration, % of the initial concentration [3, 4]: about 40%
vitamin C concentration, % of the initial concentration ([3]; room temperature (about 26° C.), 72 hours): about 0.9%
SMILES: O=C1O[C@H]([C@@H](O)CO)C(O)=C1O [vitamin C, ascorbic acid]
ABTS radical ion scavenging rate ([1]; 0 hours): 57.08%
ABTS radical ion scavenging rate ([1]; 72 hours): 2.49%
ABTS radical ion scavenging rate ([1]; after 24 hours): 22.45%
decrease of antioxidant capacity (DPPH) ([2]; after 24 hours): about 60%
DPPH free radical capture rate ([2]; 0 hour): 86.77%
DPPH free radical capture rate ([2]; 72 hours): 2.99%
DPPH free radical capture rate ([2]; after 24 hours): 34.67%
